One experiment has as its target Cathepsin S (UniProt P25774). The experiment is described as follows: Cathepsin enzyme inhibition assay (fluorogenic peptide substrate Z-Val-Val-Arg-AMC), Cathepsin S. Format: biochemical, human and mouse. Conditions: enzyme 1 nM, substrate 20 μM, pH 6.5; read-out: CatS IC50. Put shortly:
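Compounds were combined with 1 nM human or mouse enzyme, and substrate then started the reaction. The buffer was potassium phosphate (100 mM, pH 6.5) containing EDTA-Na 5 mM, Triton X-100 0.001% and […] 5 mM.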

A further experiment addresses Cat L (UniProt P07711). The experiment is described as follows: Cathepsin enzyme inhibition assay (fluorogenic peptide substrate Z-Val-Val-Arg-AMC), Cathepsin L. It is filed as biochemical, human and mouse. Conditions: enzyme 1 nM, substrate 20 μM, pH 6.5; read-out: CatL IC50. Put shortly: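 Fluorogenic cleavage of Z-Val-Val-Arg-AMC (20 μM) by 1 nM Cat L was monitored at ex 360/em 465 nm for 20 min, the linear phase. The buffer was 100 mM potassium phosphate pH 6.5 with 5 mM EDTA and DTT. IC50 values were derived by standard methods, in μM.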

Consider 23 compounds from US8163793B2, “Proline derivatives” (Hoffman-La Roche Inc., priority 2009, dated 2012).

Where a name gives a salt, the structure may show the parent alone.

On to `N#CC1(NC(=O)[C@@H]2C[C@@H](S(=O)(=O)c3ccc(-n4ccnc4)cc3Cl)CN2C(=O)C2(c3ccc(Cl)nc3)CC2)CC1` [Example 382, (2S,4R)-4-(2-Chloro-4-imidazol-1-yl-benzenesulfonyl)-1-[1-(6-chloro-pyridin-3-yl)-cyclopropanecarbonyl]-pyrrolidine-2-carboxylic acid (1-cyano-cyclopropyl)-amide], for which the IC50 at Cathepsin S stood at 0.04 nM; at Cat L, 68 nM.

For the compound `CC1(C(=O)N2C[C@H](S(=O)(=O)c3ccc(OCC(F)(F)F)cc3C(F)(F)F)C[C@H]2C(=O)NC2(C#N)CC2)CC1` [Example 211, (2S,4R)-1-(1-Methyl-cyclopropanecarbonyl)-4-[4-(2,2,2-trifluoro-ethoxy)-2-trifluoromethyl-benzenesulfonyl]-pyrrolidine-2-carboxylic acid (1-cyano-cyclopropyl)-amide], the IC50 at Cathepsin S came to 0.3 nM; at Cat L it was 63900 nM.

Turning to `CC(C)(C(=O)N1C[C@H](S(=O)(=O)c2ccccc2Cl)C[C@H]1C(=O)NC1(C#N)CC1)c1ccc(Cl)cc1` [Example 282, (2S,4R)-4-(2-Chloro-benzenesulfonyl)-1-[2-(4-chloro-phenyl)-2-methyl-propionyl]pyrrolidine-2-carboxylic acid (1-cyano-cyclopropyl)-amide], the IC50 at Cathepsin S was 0.24 nM; at Cat L, 270 nM.

Take `N#CC1(NC(=O)[C@@H]2C[C@@H](S(=O)(=O)c3ccccc3Cl)CN2C(=O)C2CCCCC2)CC1` [Example 77, (2S,4R)-4-(2-Chloro-benzenesulfonyl)-1-cyclohexanecarbonyl-pyrrolidine-2-carboxylic acid (1-cyano-cyclopropyl)-amide]: the figures for the concentration for half-maximal inhibition (IC50) on Cathepsin S and on Cat L were 0.2 nM and 8250 nM, respectively.

As to `N#CC1CCN2C[C@H](S(=O)(=O)c3ccc(F)cc3Cl)C[C@@]12C(=O)NC1(C#N)CC1` (stereo partly drawn) [Example 383, (6R,7aS)-6-(2-Chloro-4-fluoro-benzenesulfonyl)-1-cyano-tetrahydro-pyrrolizine-7a-carboxylic Acid (1-cyano-cyclopropyl)-amide], the values for the IC50 on Cathepsin S and at Cat L were 14 nM and 20000 nM, respectively.

With `N#CC1(NC(=O)[C@H]2CC(S(=O)(=O)c3ccc(OCC(F)(F)F)cc3Cl)CN2)CC1` (stereo partly drawn) [Example 173, (R)-4-[2-Chloro-4-(2,2,2-trifluoro-ethoxy)-benzenesulfonyl]-pyrrolidine-2-carboxylic acid (1-cyano-cyclopropyl)-amide], the values for the concentration for half-maximal inhibition (IC50) on Cathepsin S and on Cat L were 5.9 nM and 27300 nM, respectively.

In the case of `CC(=O)N1C[C@H](S(=O)(=O)c2ccc(-n3cccn3)cc2Cl)C[C@H]1C(=O)NC1(C#N)CC1` [Example 131, (2S,4R)-1-Acetyl-4-(2-chloro-4-pyrazol-1-yl-benzenesulfonyl)-pyrrolidine-2-carboxylic acid (1-cyano-cyclopropyl)-amide formiate], the IC50 on Cathepsin S turned out to be 0.9 nM; on Cat L, 33900 nM.

For `Cc1cc(N2C[C@H](S(=O)(=O)c3ccccc3Cl)C[C@H]2C(=O)NC2(C#N)CC2)n(C2CCC2)n1` [Example 353, (2S,4R)-4-(2-Chloro-benzenesulfonyl)-1-(2-cyclobutyl-5-methyl-2H-pyrazol-3-yl)-pyrrolidine-2-carboxylic acid (1-cyano-cyclopropyl)-amide], the concentration for half-maximal inhibition (IC50) on Cathepsin S was determined as 0.99 nM; on Cat L it was 13500 nM.

For the compound `N#CC1(NC(=O)[C@@H]2C[C@@H](S(=O)(=O)c3ccccc3C(F)(F)F)CN2C(=O)C(F)(F)F)CC1` [Example 102, (2S,4R)-1-(2,2,2-Trifluoro-acetyl)-4-(2-trifluoromethyl-benzenesulfonyl)-pyrrolidine-2-carboxylic acid (1-cyano-cyclopropyl)-amide], the concentration for half-maximal inhibition (IC50) on Cathepsin S was 3.6 nM; on Cat L it was not below 25000 nM.

`N#CC1(NC(=O)[C@@H]2C[C@@H](S(=O)(=O)c3ccc(Cl)cc3Cl)CN2C(=O)C2(C(F)(F)F)CC2)CC1` [Example 168, (2S,4R)-4-(2,4-Dichloro-benzenesulfonyl)-1-(1-trifluoromethyl-cyclopropanecarbonyl)-pyrrolidine-2-carboxylic acid (1-cyano-cyclopropyl)-amide]: the IC50 at Cathepsin S came to 0.6 nM; at Cat L it was 8800 nM.

In the case of `CC(C)(C)OC(=O)NC1(C(=O)N2C[C@H](S(=O)(=O)c3ccc(OCC(F)(F)F)cc3Cl)C[C@H]2C(=O)NC2(C#N)CC2)CC1` [Example 242, {1-[(2S,4R)-4-[2-Chloro-4-(2,2,2-trifluoro-ethoxy)-benzenesulfonyl]-2-(1-cyano-cyclopropylcarbamoyl)-pyrrolidine-1-carbonyl]-cyclopropyl}-carbamic Acid Tert-butyl ester], the IC50 at Cathepsin S is 4.75 nM; on Cat L, 1430 nM.

Take `N#CC1(NC(=O)[C@@H]2C[C@@H](S(=O)(=O)c3ccccc3C(F)(F)F)CN2c2nc(Cl)ns2)CC1` [Example 405, (2S,4R)-1-(3-Chloro-[1,2,4]thiadiazol-5-yl)-4-(2-trifluoromethyl-benzenesulfonyl)-pyrrolidine-2-carboxylic acid (1-cyano-cyclopropyl)-amide]: the half-maximal inhibitory concentration (IC50) on Cathepsin S is 0.935 nM; at Cat L it was not below 25000 nM.

For `Cc1cc(N2C[C@H](S(=O)(=O)c3ccc(N4CCN(C(C)(C)C)CC4)cc3Cl)C[C@H]2C(=O)NC2(C#N)CC2)n(CCc2ccccc2)n1` [Example 485, (2S,4R)-4-[4-(4-tert-Butyl-piperazin-1-yl)-2-chloro-benzenesulfonyl]-1-(5-methyl-2-phenethyl-2H-pyrazol-3-yl)-pyrrolidine-2-carboxylic acid (1-cyano-cyclopropyl)-amide], the IC50 at Cathepsin S worked out at 0.9 nM; at Cat L, 275 nM.

For the compound `Cc1cc(N2C[C@H](S(=O)(=O)c3ccc(OCC(F)(F)F)cc3Cl)C[C@H]2C(=O)NC2(C#N)CC2)n(CCc2ccccc2)n1` [Example 484, (2S,4R)-4-[2-Chloro-4-(2,2,2-trifluoro-ethoxy)-benzenesulfonyl]-1-(5-methyl-2-phenethyl-2H-pyrazol-3-yl)-pyrrolidine-2-carboxylic acid (1-cyano-cyclopropyl)-amide], the IC50 is 3.31 nM on Cathepsin S and 1550 nM at Cat L.

`Cc1cc(N2C[C@H](S(=O)(=O)c3ccccc3C(F)(F)F)C[C@H]2C(=O)NC2(C#N)CC2)n(C(C)C)n1` [Example 268, (2S,4R)-1-(2-Isopropyl-5-methyl-2H-pyrazol-3-yl)-4-(2-trifluoromethyl-benzenesulfonyl)-pyrrolidine-2-carboxylic acid (1-cyano-cyclopropyl)-amide]: the IC50 at Cathepsin S was 2.35 nM; at Cat L, 47300 nM.

For the compound `Cc1cc(N2C[C@H](S(=O)(=O)c3ccccc3C(F)(F)F)C[C@H]2C(=O)NC2(C#N)CC2)n(CCc2ccccc2)n1` [Example 337, (2S,4R)-1-(5-Methyl-2-phenethyl-2H-pyrazol-3-yl)-4-(2-trifluoromethyl-benzenesulfonyl)-pyrrolidine-2-carboxylic acid (1-cyano-cyclopropyl)-amide], the half-inhibitory concentration (IC50) at Cathepsin S was 1.65 nM; at Cat L it was 13000 nM.

Turning to `Cc1cc(N2C[C@H](S(C)(=O)=O)C[C@H]2C(=O)NC2(C#N)CC2)n(CCc2ccccc2)n1` [Example 448, (2S,4R)-4-Methanesulfonyl-1-(5-methyl-2-phenethyl-2H-pyrazol-3-yl)-pyrrolidine-2-carboxylic acid (1-cyano-cyclopropyl)-amide], the IC50 at Cathepsin S is 8370 nM; at Cat L, not below 25000 nM.

With `N#CC1(NC(=O)[C@@H]2C[C@@H](S(=O)(=O)c3ccc(OCC(F)(F)F)cc3Cl)CN2C(=O)C2(c3ccc4ccccc4c3)CC2)CC1` [Example 348, (2S,4R)-4-[2-Chloro-4-(2,2,2-trifluoro-ethoxy)-benzenesulfonyl]-1-(1-naphthalen-2-yl-cyclopropanecarbonyl)-pyrrolidine-2-carboxylic acid (1-cyano-cyclopropyl)-amide], the 50% inhibitory concentration (IC50) is 0.17 nM at Cathepsin S and 51 nM at Cat L.

For `CC1(C(=O)N2C[C@H](S(=O)(=O)c3ccccc3C(F)(F)F)C[C@H]2C(=O)NC2(C#N)CC2)CC1` [Example 207, (2S,4R)-1-(1-Methyl-cyclopropanecarbonyl)-4-(2-trifluoromethyl-benzenesulfonyl)-pyrrolidine-2-carboxylic acid (1-cyano-cyclopropyl)-amide], the half-maximal inhibitory concentration (IC50) on Cathepsin S is 0.3 nM; at Cat L, not below 25000 nM.

On to `CC(C)(C)OC(=O)N1C[C@H](S(=O)(=O)c2ccccc2Cl)C[C@H]1C(=O)NC1(C#N)CCC1` [Example 34, (2S,4R)-4-(2-Chloro-benzenesulfonyl)-2-(1-cyano-cyclobutylcarbamoyl)-pyrrolidine-1-carboxylic acid tert-butyl ester], for which the results for the half-maximal inhibitory concentration (IC50) on Cathepsin S and on Cat L were 766 nM and not below 25000 nM, respectively.

In the case of `Cc1cc(N2C[C@H](S(=O)(=O)c3ccc(N4CC(F)(F)C4)cc3Cl)C[C@H]2C(=O)NC2(C#N)CC2)n(C2CCC2)n1` [Example 456, (2S,4R)-4-(2-chloro-4-(3,3-difluoroazetidin-1-yl)phenylsulfonyl)-N-(1-cyanocyclopropyl)-1-(1-cyclobutyl-3-methyl-1H-pyrazol-5-yl)pyrrolidine-2-carboxamide], the IC50 at Cathepsin S worked out at 0.725 nM; on Cat L it was 3990 nM.

As for `N#CC1(NC(=O)[C@@H]2C[C@@H](S(=O)(=O)c3cccc(Cl)c3Cl)CN2)CC1` [Example 51, (2S,4R)-4-(2,3-Dichloro-benzenesulfonyl)-pyrrolidine-2-carboxylic acid (1-cyano-cyclopropyl)-amide Hydrochloride], the IC50 on Cathepsin S is 26 nM; on Cat L, not below 25000 nM.

Consider `N#CC1(NC(=O)[C@@H]2C[C@@H](S(=O)(=O)c3ccccc3Cl)CN2C(=O)Oc2ccc(F)cc2)CC1` [Example 99, (2S,4R)-4-(2-Chloro-benzenesulfonyl)-2-(1-cyano-cyclopropylcarbamoyl)-pyrrolidine-1-carboxylic acid 4-fluoro-phenyl Ester], for which the half-inhibitory concentration (IC50) is 2.6 nM on Cathepsin S and not below 25000 nM on Cat L.
